What was measured:
[1] = target: T1, BTK-1h (Homo sapiens, UniProt Q06187); assay: High-throughput screening with 1h-labeled BTK; type: binding
T1 construct: The BTK kinase domain was diluted to 2 μM in the buffer, and 2 μM 1h was added; made in house
Protocol: The collection was composed of BTK binding compounds obtained in our previous luminescence screen[37] (Data set S2). […] The resulting BTK-1h (50 μL) was added to the inhibitors.

[2] = target: BTK (Homo sapiens, UniProt Q06187); parameters: BTK kinase domain was expressed and purified as previously reported; made in house; method as in Reddi et al., J. Am. Chem. Soc. 2021, 143 (13), 4979–4992; conditions: ref Reddi et al., J. Am. Chem. Soc. 2021, 143 (13), 4979–4992; cited from earlier work
Chain of BTK (Q06187 402-655 limits assumed): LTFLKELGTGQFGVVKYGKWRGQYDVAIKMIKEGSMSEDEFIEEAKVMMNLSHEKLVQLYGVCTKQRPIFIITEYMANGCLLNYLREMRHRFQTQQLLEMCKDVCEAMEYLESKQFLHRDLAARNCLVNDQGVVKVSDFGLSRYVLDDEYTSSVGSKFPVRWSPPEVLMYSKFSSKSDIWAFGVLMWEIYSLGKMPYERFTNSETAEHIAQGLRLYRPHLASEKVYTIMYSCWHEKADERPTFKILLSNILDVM

[3] = Dataset S2A, 200 μM compound, BTK-1h, 32 °C, 10 min
[4] = Dataset S2B, 200 μM inhibitor added to BTK-1h (2 μm)

T1 sequence (Q06187 402-655): as the sequence (Q06187 402-655 limits assumed) above

Compound: COc1c(-c2ccc3cc(NS(C)(=O)=O)ccc3c2)cc(-n2ccc(=O)[nH]c2=O)cc1C(C)(C)C [PCM-0216081-001]
- FI (650)/FI (620) [1, 3]: 0.9511
- FI (BTK-1h)/FI (BTK-1h+Inhibitor) at 620 nm [1, 3]: 1.031
- BTK Inhibition reported in luminescence assay* [2]: 73.4

Compound: COc1nc2ccc(Br)cc2cc1[C@@H](c1ccccc1)[C@@](O)(CCN(C)C)c1cccc2ccccc12.O=C(O)/C=C/C(=O)O [PCM-0215093-001]
- FI (650)/FI (620) [1, 3]: 1.148
- FI (BTK-1h)/FI (BTK-1h+Inhibitor) at 620 nm [1, 3]: 1.067
- BTK Inhibition reported in luminescence assay* [2]: 84

Compound: Cc1nc(N)sc1-c1ccnc(Nc2ccc(N3CCOCC3)cc2)n1 [PCM-0095025-002]
- FI (650)/FI (620) [1, 3]: 1.274
- FI (BTK-1h)/FI (BTK-1h+Inhibitor) at 620 nm [1, 3]: 1.071
- BTK Inhibition reported in luminescence assay* [2]: 57.2

Compound: CN(C)C/C=C/C(=O)Nc1ccc(C(=O)Nc2cccc(Nc3ncc(Cl)c(-c4c[nH]c5ccccc45)n3)c2)cc1 [PCM-0213464-002, THZ1 2HCl]
- FI (650)/FI (620) [1, 3]: 2.745
- FI (BTK-1h)/FI (BTK-1h+Inhibitor) at 620 nm [1, 3]: 2.341
- FI (650)/FI (620) ([1]; Dataset S2C, BTK-1h with inhibitor): 2.341
- BTK Inhibition reported in luminescence assay* [2]: 116.6

Compound: Cc1cc(C(=O)Nc2nc3cccc(Cl)c3n2[C@@H]2CCCCN(C(=O)/C=C/CN(C)C)C2)ccn1 [PCM-0215804-001]
- FI (650)/FI (620) [1, 3]: 1.045
- FI (BTK-1h)/FI (BTK-1h+Inhibitor) at 620 nm [1, 3]: 1.069
- BTK Inhibition reported in luminescence assay* [2]: 73.8

Compound: Cn1cc(C2=C(c3cccc(N)c3)C(=O)NC2=O)c2ccccc21 [PCM-0215795-001]
- FI (650)/FI (620) [1, 3]: 1.701
- FI (BTK-1h)/FI (BTK-1h+Inhibitor) at 620 nm [1, 3]: 1.062
- BTK Inhibition reported in luminescence assay* [2]: 80.3

Compound: CC#CC(=O)N1CC[C@@H](n2c(=O)n(-c3ccc(Oc4ccccc4)cc3)c3c(N)ncnc32)C1 [PCM-0215519-001, ONO-4059]
- FI (BTK-1h)/FI (BTK-1h+Inhibitor) at 620 nm [1, 3]: 2.544
- FI (BTK-1h)/FI (BTK-1h+Inhibitor) at 620 nm [1, 4]: 4.404

Compound: CCOC(=O)c1ccc(N2NC(=O)/C(=C/c3ccc([N+](=O)[O-])o3)C2=O)cc1 [PCM-0095807-002]
- FI (650)/FI (620) [1, 3]: 2.739
- FI (BTK-1h)/FI (BTK-1h+Inhibitor) at 620 nm [1, 3]: 1.077
- BTK Inhibition reported in luminescence assay* [2]: 64.9

Compound: CC1=C(O)C(=O)C=C2C1=CC=C1[C@@]2(C)CC[C@@]2(C)[C@@H]3C[C@](C)(C(=O)O)CC[C@]3(C)CC[C@]12C [PCM-0214611-001]
- FI (650)/FI (620) [1, 3]: 0.9422
- FI (BTK-1h)/FI (BTK-1h+Inhibitor) at 620 nm [1, 3]: 1.014
- BTK Inhibition reported in luminescence assay* [2]: 67.7

Compound: CC(C)(O)CC(=O)NCCn1ccc2ncnc(Nc3ccc(Oc4cccc(C(F)(F)F)c4)c(Cl)c3)c21 [PCM-0095364-002]
- FI (650)/FI (620) [1, 3]: 0.8854
- FI (BTK-1h)/FI (BTK-1h+Inhibitor) at 620 nm [1, 3]: 1.06
- BTK Inhibition reported in luminescence assay* [2]: 73.8

Compound: Cl.N/C(=N\N=C\c1ccc(Cl)cc1)N/N=C/c1ccc(Cl)cc1 [PCM-0215125-001]
- FI (650)/FI (620) [1, 3]: 1.174
- FI (BTK-1h)/FI (BTK-1h+Inhibitor) at 620 nm [1, 3]: 1.002
- BTK Inhibition reported in luminescence assay* [2]: 77.8

Compound: COc1cc2nccc(Oc3ccc(NC(=O)Nc4cc(C)on4)c(Cl)c3)c2cc1OC [PCM-0094927-002]
- FI (650)/FI (620) [1, 3]: 1.123
- FI (BTK-1h)/FI (BTK-1h+Inhibitor) at 620 nm [1, 3]: 1.05
- BTK Inhibition reported in luminescence assay* [2]: 84.1

Compound: CN(c1ncccc1CNc1nc(Nc2ccc3c(c2)CC(=O)N3)ncc1C(F)(F)F)S(C)(=O)=O.O=S(=O)(O)c1ccccc1 [PCM-0095340-005]
- FI (650)/FI (620) [1, 3]: 1.135
- FI (BTK-1h)/FI (BTK-1h+Inhibitor) at 620 nm [1, 3]: 1.028
- BTK Inhibition reported in luminescence assay* [2]: 84.8

Compound: C[C@@H](Oc1ccc2[nH]nc(/C=C/c3cnn(CCO)c3)c2c1)c1c(Cl)cncc1Cl [PCM-0215376-001]
- FI (650)/FI (620) [1, 3]: 1.5356
- FI (BTK-1h)/FI (BTK-1h+Inhibitor) at 620 nm [1, 3]: 1.156
- BTK Inhibition reported in luminescence assay* [2]: 101.4

Compound: CC1=C(C(=O)OC(C)C)C(c2cccc([N+](=O)[O-])c2)C(C(=O)OC2CN(C(c3ccccc3)c3ccccc3)C2)=C(N)N1 (stereo not shown) [PCM-0095544-002]
- FI (650)/FI (620) [1, 3]: 1.1262
- FI (BTK-1h)/FI (BTK-1h+Inhibitor) at 620 nm [1, 3]: 1.0184
- BTK Inhibition reported in luminescence assay* [2]: 70

Compound: COc1cc2c(Nc3ccc(NC(=O)c4ccccc4)cc3)ncnc2cc1OCCCN1CCOCC1 [PCM-0094881-002]
- FI (650)/FI (620) [1, 3]: 1.089
- FI (BTK-1h)/FI (BTK-1h+Inhibitor) at 620 nm [1, 3]: 1.079
- BTK Inhibition reported in luminescence assay* [2]: 77.9

Compound: O=[N+]([O-])c1ccc(Nc2ccccc2-c2ccccc2)c2nonc12 [PCM-0215806-001]
- FI (650)/FI (620) [1, 3]: 1.017
- FI (BTK-1h)/FI (BTK-1h+Inhibitor) at 620 nm [1, 3]: 1.01
- BTK Inhibition reported in luminescence assay* [2]: 74.1

Compound: COc1ccc2cc3[n+](cc2c1O)CCc1cc2c(cc1-3)OCO2.[Cl-] [PCM-0216489-001]
- FI (650)/FI (620) [1, 3]: 1.203
- FI (BTK-1h)/FI (BTK-1h+Inhibitor) at 620 nm [1, 3]: 0.9862
- BTK Inhibition reported in luminescence assay* [2]: 97.3

Compound: Cc1c[nH]c2nc(Nc3ccc(N4CCN(C)CC4)c(F)c3)nc(-c3cccc(CC#N)c3)c12 [PCM-0215633-001]
- FI (650)/FI (620) [1, 3]: 1.1215
- FI (BTK-1h)/FI (BTK-1h+Inhibitor) at 620 nm [1, 3]: 1.062
- BTK Inhibition reported in luminescence assay* [2]: 92.4

Compound: CCCCCCCCCCCCCCCC(=O)O[C@@H]1[C@@H](O)[C@@H](O)[C@@H]([C@H](NC(=O)[C@@H]2C[C@@H](CCC)CN2C)[C@H](C)Cl)O[C@@H]1SC.Cl [PCM-0215167-001]
- FI (650)/FI (620) [1, 3]: 0.5899
- FI (BTK-1h)/FI (BTK-1h+Inhibitor) at 620 nm [1, 3]: 0.9902
- BTK Inhibition reported in luminescence assay* [2]: 73.2

Compound: O=C1NC(=O)C(c2cnc3ccccn23)=C1c1cn2c3c(cc(F)cc13)CN(C(=O)N1CCCCC1)CC2 [PCM-0215438-001]
- FI (650)/FI (620) [1, 3]: 0.9847
- FI (BTK-1h)/FI (BTK-1h+Inhibitor) at 620 nm [1, 3]: 1.0465
- BTK Inhibition reported in luminescence assay* [2]: 80

Compound: CN[C@H]1C(=O)N[C@@H]2Cc3ccc(cc3)Oc3cc4cc(c3O[C@@H]3O[C@H](C(=O)O)[C@@H](O)[C@H](O)[C@H]3NC(=O)CCCCCCCCC(C)C)Oc3ccc(cc3Cl)[C@@H](O)[C@@H]3NC(=O)[C@H](NC(=O)[C@@H]4NC(=O)[C@@H](NC2=O)c2cc(cc(O)c2Cl)Oc2cc1ccc2O)c1ccc(O)c(c1)-c1c(O[C@H]2O[C@H](CO)[C@@H](O)[C@H](O)[C@@H]2O)cc(O)cc1[C@@H](C(=O)NCCCN(C)C)NC3=O [PCM-0215113-001]
- FI (650)/FI (620) [1, 3]: 0.7724
- FI (BTK-1h)/FI (BTK-1h+Inhibitor) at 620 nm [1, 3]: 1.097
- BTK Inhibition reported in luminescence assay* [2]: 73.2

Compound: CN1CCN(Cc2ccc(NC(=O)Nc3ccc(Oc4cc(NC(=O)C5CC5)ncn4)cc3)cc2C(F)(F)F)CC1 [PCM-0215388-001]
- FI (650)/FI (620) [1, 3]: 1.014
- FI (BTK-1h)/FI (BTK-1h+Inhibitor) at 620 nm [1, 3]: 1.145
- BTK Inhibition reported in luminescence assay* [2]: 79.5

Compound: COc1cc(N2CCC(N3CCN(C)CC3)CC2)ccc1Nc1ncnc(Nc2ccccc2S(=O)(=O)C(C)C)n1 [PCM-0215273-001]
- FI (650)/FI (620) [1, 3]: 1.877
- FI (BTK-1h)/FI (BTK-1h+Inhibitor) at 620 nm [1, 3]: 1.327
- BTK Inhibition reported in luminescence assay* [2]: 89

Compound: O=C([O-])CCN1C(=O)/C(=C/c2ccc(-c3ccc([N+](=O)[O-])cc3)o2)SC1=S.[K+] [PCM-0215696-001]
- FI (650)/FI (620) [1, 3]: 0.9958
- FI (BTK-1h)/FI (BTK-1h+Inhibitor) at 620 nm [1, 3]: 1.02
- BTK Inhibition reported in luminescence assay* [2]: 59.5

Compound: CN(Cc1ccc(C(C)(C)C)cc1)Cc1cccc2ccccc12.Cl [PCM-0086068-001]
- FI (650)/FI (620) [1, 3]: 0.9972
- FI (BTK-1h)/FI (BTK-1h+Inhibitor) at 620 nm [1, 3]: 1.029
- BTK Inhibition reported in luminescence assay* [2]: 62.3

Compound: COc1c(O)c(C)cc2c1C(=O)c1c(O)cccc1C2=O [PCM-0216457-001]
- FI (650)/FI (620) [1, 3]: 1.085
- FI (BTK-1h)/FI (BTK-1h+Inhibitor) at 620 nm [1, 3]: 1.022
- BTK Inhibition reported in luminescence assay* [2]: 64.1

Compound: CNC(=O)c1cc(Oc2ccc(NC(=O)Nc3cc(C(C)(C)C)nn3-c3ccc4ncccc4c3)c(F)c2)ccn1 [PCM-0095514-002]
- FI (650)/FI (620) [1, 3]: 1.156
- FI (BTK-1h)/FI (BTK-1h+Inhibitor) at 620 nm [1, 3]: 1.374
- BTK Inhibition reported in luminescence assay* [2]: 98.6

Compound: Cl.Cl.O=C1c2c(O)ccc(O)c2C(=O)c2c(NCCNCCO)ccc(NCCNCCO)c21 [PCM-0065547-003]
- FI (650)/FI (620) [1, 3]: 1.449
- FI (BTK-1h)/FI (BTK-1h+Inhibitor) at 620 nm [1, 3]: 1.019
- BTK Inhibition reported in luminescence assay* [2]: 51

Compound: O=c1cc(-c2ccc(O)cc2)oc2cc(O)c(O)c(O)c12 [PCM-0216408-001, Scutellarein]
- FI (650)/FI (620) [1, 3]: 4.394
- FI (BTK-1h)/FI (BTK-1h+Inhibitor) at 620 nm [1, 3]: 1.081
- FI (BTK-1h)/FI (BTK-1h+Inhibitor) at 620 nm [1, 4]: 4.394
- BTK Inhibition reported in luminescence assay* [2]: 70.3

Compound: C=CC(=O)N1CC[C@@H](Oc2nc(Nc3ccc(N4CCC(N5CCN(C)CC5)CC4)cc3)c(C(N)=O)nc2CC)C1 [PCM-0215788-001]
- FI (650)/FI (620) [1, 3]: 1.046
- FI (BTK-1h)/FI (BTK-1h+Inhibitor) at 620 nm [1, 3]: 1.04
- BTK Inhibition reported in luminescence assay* [2]: 91

Compound: Cl[Te]1(Cl)(Cl)OCCO1.N [PCM-0215721-001]
- FI (650)/FI (620) [1, 3]: 1.1548
- FI (BTK-1h)/FI (BTK-1h+Inhibitor) at 620 nm [1, 3]: 1.038
- BTK Inhibition reported in luminescence assay* [2]: 98.6
